These results are taken from ChEMBL document CHEMBL3124848, “Crystal structures of human transthyretin complexed with glabridin” (J Med Chem, 2014).

This test concerns the target Transthyretin (Homo sapiens, UniProt P02766, V50M). Description: Inhibition of transthyretin V30M mutant (unknown origin) expressed in Escherichia coli assessed as inhibition of sodium acetate-mediated aggregation preincubated for 30 mins followed by sodium acetate addition measured after 96 hrs by thioflavin T assay.
What is called IC50 is the concentration that gives 50% inhibition. For `Oc1ccc([C@@H]2COc3cc(O)ccc3C2)cc1`, the IC50 was found to be 13 µM. The value for `O=c1c(-c2ccc(O)cc2)coc2cc(O)ccc12` [DAIDZEIN] was 16 µM; that for `O=c1c(-c2ccc(O)cc2)coc2cc(O)cc(O)c12` [GENISTEIN] was 7.8 µM. `CC1(C)C=Cc2c(ccc3c2OC[C@@H](c2ccc(O)cc2O)C3)O1` [GLABRIDIN]: the IC50 was determined as 6.4 µM.

As to `O=c1cc(-c2ccc(O)c(O)c2)oc2cc(O)cc(O)c12` [LUTEOLIN], the IC50 turned out to be 6.4 µM.
